Results as given in patent US8778871B2 (Takeda Pharmaceutical Company Limited, priority 2004, dated 2014).
Starred links: 1 amine or outer side, 2 acyl side, 3 side chain; linkers in the order of their positions; H or OH if unused. Non-standard residues stand in square brackets, D forms with d. Residues, ends and D or L forms follow the SMILES beside them. No end group written: not given here. X3 = O=C(CNC(=S)[C@H](Cc1ccccc1)N[*:1])[*:2]; Phe(2-Cl) = N[C@@H](Cc1ccccc1Cl)C(=O)O; 1Nal = N[C@@H](Cc1cccc2ccccc12)C(=O)O; 2Nal = N[C@@H](Cc1ccc2ccccc2c1)C(=O)O; Arg(Me) = CNC(=N)NCCC[C@H](N)C(=O)O; azaGly = NNC(=O)O

Target: T1, hOT7T175 (Homo sapiens, UniProt Q969F8, L364H)
T1 construct: expressed in transfected cells
T1 sequence (Q969F8 whole entry L364H): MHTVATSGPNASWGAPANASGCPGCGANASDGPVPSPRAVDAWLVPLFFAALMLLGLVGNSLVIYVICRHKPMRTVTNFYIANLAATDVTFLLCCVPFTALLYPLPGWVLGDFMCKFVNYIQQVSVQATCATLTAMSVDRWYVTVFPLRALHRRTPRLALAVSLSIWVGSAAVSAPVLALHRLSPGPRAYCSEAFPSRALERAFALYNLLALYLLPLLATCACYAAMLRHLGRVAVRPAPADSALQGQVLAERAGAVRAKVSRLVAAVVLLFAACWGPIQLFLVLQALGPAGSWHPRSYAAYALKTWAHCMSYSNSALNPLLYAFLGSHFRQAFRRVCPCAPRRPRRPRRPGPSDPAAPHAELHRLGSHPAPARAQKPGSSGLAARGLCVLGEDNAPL
Assay: Intracellular Ca ion level-increasing activity using FLIPR (180 seconds; specific activity to Metastin (1-54))
Assay type: cell-based
Conditions: hOT7T175/CHO, relative to Metastin (1-54) = 1

## CC(C)C[C@H](NC(=O)CNC(=O)[C@H](Cc1ccccc1)NC(=O)[C@H](CO)NC(=O)[C@H](CC(N)=O)NC(=O)[C@H](Cc1c[nH]c2ccccc12)NC(=O)[C@H](CC(N)=O)NC(=O)[C@@H](N)Cc1ccc(O)cc1)C(=O)N[C@@H](CCCNC(=N)N)C(=O)N[C@@H](Cc1cccc2ccccc12)C(N)=O [Compound No. 133] (H-YNWNSFGLR[1Nal]-NH2)
  Specific Act. (intracellular Ca ion level-increasing activity, specific activity to Metastin (1-54)): 3

## CNC(=N)NCCC[C@H](NC(=O)[C@H](CC(C)C)NC(=O)CNC(=O)[C@H](Cc1ccccc1)NC(=O)[C@H](CO)NC(=O)[C@H](CC(N)=O)NC(=O)[C@H](CO)NC(=O)[C@H](CC(N)=O)NC(=O)[C@H](N)Cc1ccc(O)cc1)C(=O)N[C@@H](Cc1ccccc1)C(N)=O [Compound No. 170] (H-[dY]NSNSFGL[Arg(Me)]F-NH2)
  Specific Act. (intracellular Ca ion level-increasing activity, specific activity to Metastin (1-54)): 1

## CNC(=N)NCCC[C@H](NC(=O)[C@H](CC(C)C)NC(=O)CNC(=O)[C@H](Cc1ccccc1)NC(=O)[C@H](CO)NC(=O)[C@H](CC(N)=O)NC(=O)[C@@H](Cc1c[nH]c2ccccc12)NC(=O)[C@H](N)CC(N)=O)C(=O)N[C@@H](Cc1ccccc1)C(N)=O [Compound No. 225, D-Asn-D-Trp-Asn-Ser-Phe-Gly-Leu-Arg(Me)-Phe-NH2] (H-[dN][dW]NSFGL[Arg(Me)]F-NH2)
  Specific Act. (intracellular Ca ion level-increasing activity, specific activity to Metastin (1-54)): 1

## CC(C)C[C@H](NC(=O)CNC[C@H](Cc1ccccc1)NC(=O)[C@H](CO)NC(=O)[C@H](CC(N)=O)NC(=O)[C@H](Cc1c[nH]c2ccccc12)NC(=O)[C@H](CC(N)=O)NC(=O)[C@@H](N)Cc1ccc(O)cc1)C(=O)N[C@@H](CCCNC(=N)N)C(=O)N[C@@H](Cc1ccccc1)C(N)=O [Compound No. 163, Tyr-Asn-Trp-Asn-Ser-PheΨ(CH2NH)Gly-Leu-Arg-Phe-NH2]
  Specific Act. (intracellular Ca ion level-increasing activity, specific activity to Metastin (1-54)): 1

## CC(C)C[C@H](NC(=O)CNC(=O)[C@H](Cc1ccccc1)NC(=O)[C@H](CO)NC(=O)[C@H](CC(N)=O)NC(=O)[C@H](Cc1c[nH]c2ccccc12)NC(=O)[C@H](CC(N)=O)NC(=O)[C@@H](N)Cc1ccc(O)cc1)C(=O)N[C@@H](CCCNC(=N)N)C(=O)N[C@@H](Cc1cccc(C(F)(F)F)c1)C(N)=O [Compound No. 200]
  Specific Act. (intracellular Ca ion level-increasing activity, specific activity to Metastin (1-54)): 10

## CCCC[C@H](NC(=O)CNC(=O)[C@H](Cc1ccccc1)NC(=O)[C@H](CO)NC(=O)[C@H](CC(N)=O)NC(=O)[C@H](Cc1c[nH]c2ccccc12)NC(=O)[C@H](CC(N)=O)NC(=O)[C@@H](N)Cc1ccc(O)cc1)C(=O)N[C@@H](CCCNC(=N)N)C(=O)N[C@@H](Cc1ccccc1)C(N)=O [Compound No. 105, Tyr-Asn-Trp-Asn-Ser-Phe-Gly-Nle-Arg-Phe-NH2]
  Specific Act. (intracellular Ca ion level-increasing activity, specific activity to Metastin (1-54)): 1

## CNC(=N)NCCC[C@H](NC(=O)[C@H](CC(C)C)NC(=O)NNC(=O)[C@H](Cc1ccccc1)NC(=O)[C@H](CO)NC(=O)[C@H](CC(N)=O)NC(=O)[C@H](Cc1ccccc1Cl)NC(=O)[C@H](CC(N)=O)NC(=O)[C@H](N)Cc1ccc(O)cc1)C(=O)N[C@@H](Cc1ccccc1)C(N)=O [Compound No. 247, D-Tyr-Asn-Phe(2Cl)-Asn-Ser-Phe-AzaGly-Leu-Arg(Me)-Phe-NH2] (H-[dY]N[Phe(2-Cl)]NSF[azaGly]L[Arg(Me)]F-NH2)
  Specific Act. (intracellular Ca ion level-increasing activity, specific activity to Metastin (1-54)): 1

## CNC(=N)NCCC[C@H](NC(=O)[C@H](CC(C)C)NC(=O)CNC(=O)[C@H](Cc1ccccc1)NC(=O)[C@H](CO)NC(=O)[C@H](CC(N)=O)NC(=O)[C@H](C)NC(=O)[C@H](CC(N)=O)NC(=O)[C@H](N)Cc1ccc(O)cc1)C(=O)N[C@@H](Cc1ccccc1)C(N)=O [Compound No. 169] (H-[dY]NANSFGL[Arg(Me)]F-NH2)
  Specific Act. (intracellular Ca ion level-increasing activity, specific activity to Metastin (1-54)): 2

## CC(C)C[C@H](NC(=O)CNC(=S)[C@H](Cc1ccccc1)NC(=O)[C@H](CO)NC(=O)[C@H](CC(N)=O)NC(=O)[C@H](Cc1c[nH]c2ccccc12)NC(=O)[C@H](CC(N)=O)NC(=O)[C@@H](N)Cc1ccc(O)cc1)C(=O)N[C@@H](CCCNC(=N)N)C(=O)N[C@@H](Cc1ccccc1)C(N)=O [Compound No. 166, Tyr-Asn-Trp-Asn-Ser-PheΨ(CSNH)Gly-Leu-Arg-Phe-NH2] (H-YNWNS[X3]LRF-NH2)
  Specific Act. (intracellular Ca ion level-increasing activity, specific activity to Metastin (1-54)): 5

## CNC(=N)NCCC[C@H](NC(=O)[C@H](CC(C)C)NC(=O)CNC(=O)[C@H](Cc1ccccc1)NC(=O)[C@H](CO)NC(=O)[C@H](CC(N)=O)NC(=O)[C@@H](NC(=O)[C@H](N)Cc1ccc(O)cc1)[C@@H](C)O)C(=O)N[C@@H](Cc1ccccc1)C(N)=O [Compound No. 227] (H-[dY]TNSFGL[Arg(Me)]F-NH2)
  Specific Act. (intracellular Ca ion level-increasing activity, specific activity to Metastin (1-54)): 1

## D-Tyr-Asn-Trp-Ser-Ser-Phe-Gly-Leu-Arg(Me)-Phe-NH2 ([dY]NWSSFGL[Arg(Me)]F-NH2) [Compound No. 207]
  Specific Act. (intracellular Ca ion level-increasing activity, specific activity to Metastin (1-54)): ½

## CNC(=N)NCCC[C@H](NC(=O)[C@H](CC(C)C)NC(=O)CNC(=O)[C@H](Cc1ccccc1)NC(=O)[C@H](CO)NC(=O)[C@H](CC(N)=O)NC(=O)[C@@H](Cc1c[nH]c2ccccc12)NC(=O)[C@@H](CC(N)=O)NC(=O)[C@H](N)Cc1ccc(O)cc1)C(=O)N[C@@H](Cc1ccccc1)C(N)=O [Compound No. 231, D-Tyr-D-Asn-D-Trp-Asn-Ser-Phe-Gly-Leu-Arg(Me)-Phe-NH2]
  Specific Act. (intracellular Ca ion level-increasing activity, specific activity to Metastin (1-54)): 1

## CNC(=N)NCCC[C@H](NC(=O)[C@H](CC(C)C)NC(=O)NNC(=O)[C@H](Cc1ccccc1)NC(=O)[C@H](CO)NC(=O)[C@H](CC(N)=O)NC(=O)[C@H](Cc1ccc2ccccc2c1)NC(=O)[C@H](CC(N)=O)NC(=O)[C@H](N)Cc1ccc(O)cc1)C(=O)N[C@@H](Cc1ccccc1)C(N)=O [Compound No. 246, D-Tyr-Asn-Nal(2)-Asn-Ser-Phe-AzaGly-Leu-Arg(Me)-Phe-NH2] (H-[dY]N[2Nal]NSF[azaGly]L[Arg(Me)]F-NH2)
  Specific Act. (intracellular Ca ion level-increasing activity, specific activity to Metastin (1-54)): 2

## CNC(=N)NCCC[C@H](NC(=O)[C@H](CC(C)C)NC(=O)NNC(=O)[C@H](Cc1ccccc1)NC(=O)[C@H](CO)NC(=O)[C@H](CC(N)=O)NC(=O)[C@H](Cc1ccccc1)NC(=O)[C@H](N)Cc1ccc(O)cc1)C(=O)N[C@@H](Cc1ccccc1)C(N)=O [Compound No. 254, D-Tyr-Phe-Asn-Ser-Phe-AzaGly-Leu-Arg(Me)-Phe-NH2] (H-[dY]FNSF[azaGly]L[Arg(Me)]F-NH2)
  Specific Act. (intracellular Ca ion level-increasing activity, specific activity to Metastin (1-54)): 1
